According to patent publication US11491157B2, “Cycloalkyl substituted pyrazolopyrimidines having activity against RSV” (priority 2018, dated 2022):
Where a name gives a salt, the structure may show the parent alone.

Experiments:
[1] = in vitro; conditions: human
Method: (§1) Black 384-well clear-bottom microtiter plates (Corning, Amsterdam, The Netherlands) were filled via acoustic drop ejection using the echo liquid handler (Labcyte, Sunnyvale, Calif.). 200 nL of compound stock solutions (100% DMSO) were transferred to the assay plates. 9 serial 4-fold dilutions of compound were made, creating per quadrant the same compound concentration. The assay was initiated by adding 10 μL of culture medium to each well (RPMI medium without phenol red, 10% FBS-heat inactivated, 0.04% gentamycin (50 mg/mL). All addition steps are done by using a multidrop dispenser (Thermo Scientific, Erembodegem, Belgium). Next, rgRSV224 virus (MOI=1) diluted in culture medium was added to the plates. rgRSV224 virus is an engineered virus that includes an additional GFP gene (Hallak L K, Spillmann D, Collins P L, Peeples M E. Glycosaminoglycan sulfation requirements for respiratory syncytial virus infection; Journal of virology (2000), 74(22), 10508-13) and was in-licensed from the NIH (Bethesda, Md., USA). Finally, 20 μL of a HeLa cell suspension (3,000 cells/well) were plated. Medium, virus- and mock-infected controls were included in each test. The wells contain 0.05% DMSO per volume. Cells were incubated at 37° C. in a 5% CO2 atmosphere. Three days post-virus exposure, viral replication was quantified by measuring GFP expression in the cells by an in house developed MSM laser microscope (Tibotec, Beerse, Belgium). The EC50 was defined as the 50% inhibitory concentration for GFP expression. In parallel, compounds were incubated for three days in a set of white 384-well microtiter plates (Corning) and the cytotoxicity of compounds in HeLa cells was determined by measuring the ATP content of the cells using the ATPlite kit (Perkin Elmer, Zaventem, Belgium) according to the manufacturer's instructions. The CC50 was defined as the 50% concentration for cytotoxicity.

[2] = tested on: rgRSV224 virus; experiment: Antiviral activity: rgRSV224 (GFP) replication in HeLa cells; conditions: human respiratory syncytial virus, 72 h, read-out: RSV HELA EC50
Method: as §1

Q: With C[C@@H]1c2ccccc2CCN1C(=O)c1cc(C2CC2)n2nc(-c3cnc(C4C[C@H]4C(N)=O)cc3F)cc2n1 (relative stereo) [Compound 49, Trans-2-(5-{7-Cyclopropyl-5-[(1R)-1-methyl-1,2,3,4-tetrahydroisoquinoline-2-carbonyl]pyrazolo[1,5-a]pyrimidin-2-yl}-4-fluoropyridin-2-yl)cyclopropane-1-carboxamide] as the compound, how does the CC50 at 3 days [1] read?
A: 10.8 µM

Q: And the EC50 [2]?
A: 150 nM

Q: Which results are given for C[C@@H]1c2ccccc2CCN1C(=O)c1cc(C2CC2)n2nc(-c3cnc(C4C[C@H]4C(=O)NS(C)(=O)=O)cc3F)cc2n1 (relative stereo) [Compound 50, Trans-2-(5-{7-Cyclopropyl-5-[(1R)-1-methyl-1,2,3,4-tetrahydroisoquinoline-2-carbonyl]pyrazolo[1,5-a]pyrimidin-2-yl}-4-fluoropyridin-2-yl)-N-methanesulfonylcyclopropane-1-carboxamide]?
A: CC50 at 3 days [1]: 53.3 µM; EC50 [2]: 389 nM

Q: With C[C@@H]1c2ccccc2CCN1C(=O)c1cc(C2CC2)n2nc(-c3ccc(C4C[C@H]4C(N)=O)nc3F)cc2n1 (relative stereo) [Compound 51, Trans-2-(5-{7-Cyclopropyl-5-[(1R)-1-methyl-1,2,3,4-tetrahydroisoquinoline-2-carbonyl]pyrazolo[1,5-a]pyrimidin-2-yl}-6-fluoropyridin-2-yl)cyclopropane-1-carboxamide] as the compound, how does the CC50 at 3 days [1] read?
A: 25.9 µM

Q: What about the EC50 [2] of the same compound?
A: 47 nM

Q: For C[C@@H]1c2ccccc2CCN1C(=O)c1cc(C2CC2)n2nc(-c3ccc(C4C[C@H]4C(=O)NS(C)(=O)=O)nc3F)cc2n1 (relative stereo) [Compound 52, Trans-2-(5-{7-Cyclopropyl-5-[(1R)-1-methyl-1,2,3,4-tetrahydroisoquinoline-2-carbonyl]pyrazolo[1,5-a]pyrimidin-2-yl}-6-fluoropyridin-2-yl)-N-methanesulfonylcyclopropane-1-carboxamide], which CC50 at 3 days [1] is on record?
A: 65.3 µM

Q: What about the EC50 [2] of the same compound?
A: 117 nM

Q: Which results are given for C[C@@H]1c2ccccc2CCN1C(=O)c1cc(-c2ccccc2)n2nc(-c3ccc([C@H]4C[C@@H]4C(=O)NS(C)(=O)=O)cc3F)cc2n1 (single isomer, unassigned) [Compound 31, (1*S,2*S)-2-(3-Fluoro-4-{5-[(1R)-1-methyl-1,2,3,4-tetrahydroisoquinoline-2-carbonyl]-7-phenylpyrazolo[1,5-a]pyrimidin-2-yl}phenyl)-N-methanesulfonyl-cyclopropane-1-carboxamide; propan-2-amine salt]?
A: CC50 at 3 days [1]: 35.2 µM; EC50 [2]: 40 nM

Q: Which CC50 at 3 days [1] does the source give for C[C@@H]1c2ccccc2CCN1C(=O)c1cc(-c2ccccc2)n2nc(-c3ccc([C@@H]4C[C@H]4C(=O)NS(C)(=O)=O)cc3F)cc2n1 (single isomer, unassigned) [Compound 32, (1*R,2*R)-2-(3-Fluoro-4-{5-[(1R)-1-methyl-1,2,3,4-tetrahydroisoquinoline-2-carbonyl]-7-phenylpyrazolo[1,5-a]pyrimidin-2-yl}phenyl)-N-methanesulfonyl-cyclopropane-1-carboxamide; propan-2-amine salt] here?
A: 37.3 µM

Q: What about the EC50 [2] of the same compound?
A: 61 nM

Q: For C[C@@H]1c2ccccc2CCN1C(=O)c1cc(C2CC2)n2nc(-c3ccc([C@H]4C[C@@H]4CO)cc3F)cc2n1 [Compound 1, [(1S,2S)-2-(4-{7-Cyclopropyl-5-[(1R)-1-methyl-1,2,3,4-tetrahydroisoquinoline-2-carbonyl]pyrazolo[1,5-a]pyrimidin-2-yl}-3-fluorophenyl)cyclopropyl]methanol], which CC50 at 3 days [1] is on record?
A: 41.8 µM

Q: What about the EC50 [2] of the same compound?
A: 62 nM

Q: For C[C@@H]1c2ccccc2CCN1C(=O)c1cc(C2CC2)n2nc(-c3ccc([C@@H]4C[C@H]4c4cc(=O)[nH]o4)cc3F)cc2n1 [Compound 2, 5-[(1R,2R)-2-(4-{7-Cyclopropyl-5-[(1R)-1-methyl-1,2,3,4-tetrahydroisoquinoline-2-carbonyl]pyrazolo[1,5-a]pyrimidin-2-yl}-3-fluorophenyl)cyclopropyl]-2,3-dihydro-1,2-oxazol-3-one], which CC50 at 3 days [1] is on record?
A: 42.5 µM

Q: What about the EC50 [2] of the same compound?
A: 84 nM

Q: With C[C@@H]1c2ccccc2CCN1C(=O)c1cc(C2CC2)n2nc(-c3ccc([C@H]4C[C@@H]4C#N)cc3F)cc2n1 [Compound 3, (1S,2S)-2-(4-{7-Cyclopropyl-5-[(1R)-1-methyl-1,2,3,4-tetrahydroisoquinoline-2-carbonyl]pyrazolo[1,5-a]pyrimidin-2-yl}-3-fluorophenyl)cyclopropane-1-carbonitrile] as the compound, how does the CC50 at 3 days [1] read?
A: > 100 µM

Q: And the EC50 [2]?
A: 319 nM

Q: For C[C@@H]1c2ccccc2CCN1C(=O)c1cc(C2CC2)n2nc(-c3ccc([C@H]4C[C@@H]4c4noc(=O)[nH]4)cc3F)cc2n1 [Compound 5, 3-[(1S,2S)-2-(4-{7-Cyclopropyl-5-[(1R)-1-methyl-1,2,3,4-tetrahydroisoquinoline-2-carbonyl]pyrazolo[1,5-a]pyrimidin-2-yl}-3-fluorophenyl)cyclopropyl]-4,5-dihydro-1,2,4-oxadiazol-5-one], which CC50 at 3 days [1] is on record?
A: 41.8 µM

Q: What about the EC50 [2] of the same compound?
A: 98 nM

Q: What does the source list for C[C@@H]1c2ccccc2CCN1C(=O)c1cc(C2CC2)n2nc(-c3ccc([C@H]4C[C@@H]4C(=O)NC#N)cc3F)cc2n1 [Compound 13, (1S,2S)—N-Cyano-2-(4-{7-cyclopropyl-5-[(1R)-1-methyl-1,2,3,4-tetrahydroisoquinoline-2-carbonyl]pyrazolo[1,5-a]pyrimidin-2-yl}-3-fluorophenyl)cyclopropane-1-carboxamide]?
A: CC50 at 3 days [1]: 49.8 µM; EC50 [2]: 731 nM

Q: What does the source list for CCNC(=O)[C@H]1C[C@@H]1c1ccc(-c2cc3nc(C(=O)N4CCc5ccccc5[C@H]4C)cc(C4CC4)n3n2)c(F)c1 [Compound 14, (1S,2S)-2-(4-{7-Cyclopropyl-5-[(1R)-1-methyl-1,2,3,4-tetrahydroisoquinoline-2-carbonyl]pyrazolo[1,5-a]pyrimidin-2-yl}-3-fluorophenyl)-N-ethylcyclopropane-1-carboxamide]?
A: CC50 at 3 days [1]: > 50 µM; EC50 [2]: 170 nM

Q: For C#CCNC(=O)[C@H]1C[C@@H]1c1ccc(-c2cc3nc(C(=O)N4CCc5ccccc5[C@H]4C)cc(C4CC4)n3n2)c(F)c1 [Compound 17, (1S,2S)-2-(4-{7-Cyclopropyl-5-[(1R)-1-methyl-1,2,3,4-tetrahydroisoquinoline-2-carbonyl]-pyrazolo[1,5-a]pyrimidin-2-yl}-3-fluorophenyl)-N-(prop-2-yn-1-yl)cyclopropane-1-carboxamide], which CC50 at 3 days [1] is on record?
A: > 100 µM

Q: And the EC50 [2]?
A: 182 nM

Q: What does the source list for C[C@@H]1c2ccccc2CCN1C(=O)c1cc(C2CC2)n2nc(-c3ccc([C@H]4C[C@@H]4C(=O)NC4(C)CC4)cc3F)cc2n1 [Compound 20, (1S,2S)-2-(4-{7-Cyclopropyl-5-[(1R)-1-methyl-1,2,3,4-tetrahydroisoquinoline-2-carbonyl]-pyrazolo[1,5-a]pyrimidin-2-yl}-3-fluorophenyl)-N-(1-methylcyclopropyl)cyclopropane-1-carboxamide]?
A: CC50 at 3 days [1]: > 10 µM; EC50 [2]: 287 nM

Q: For C[C@@H]1c2ccccc2CCN1C(=O)c1cc(C2CC2)n2nc(-c3ccc([C@H]4C[C@@H]4C(=O)NCCO)cc3F)cc2n1 [Compound 21, (1S,2S)-2-(4-{7-Cyclopropyl-5-[(1R)-1-methyl-1,2,3,4-tetrahydroisoquinoline-2-carbonyl]-pyrazolo[1,5-a]pyrimidin-2-yl}-3-fluorophenyl)-N-(2-hydroxyethyl)-cyclopropane-1-carboxamide], which CC50 at 3 days [1] is on record?
A: > 100 µM

Q: What about the EC50 [2] of the same compound?
A: 62 nM

Q: Which CC50 at 3 days [1] does the source give for C[C@@H]1c2ccccc2CCN1C(=O)c1cc(C2CC2)n2nc(-c3ccc([C@H]4C[C@@H]4C(=O)N(C)C)cc3F)cc2n1 [Compound 22, (1S,2S)-2-(4-{7-Cyclopropyl-5-[(1R)-1-methyl-1,2,3,4-tetrahydroisoquinoline-2-carbonyl]-pyrazolo[1,5-a]pyrimidin-2-yl}-3-fluorophenyl)-N,N-dimethylcyclopropane-1-carboxamide] here?
A: 51.8 µM

Q: What about the EC50 [2] of the same compound?
A: 427 nM

Q: What does the source list for C[C@@H]1c2ccccc2CCN1C(=O)c1cc(C2CC2)n2nc(-c3ccc([C@H]4C[C@@H]4C(=O)N4CCCC4)cc3F)cc2n1 [Compound 23, (1R)-2-(7-Cyclopropyl-2-{2-fluoro-4-[(1S,2S)-2-(pyrrolidine-1-carbonyl)cyclopropyl]-phenyl}pyrazolo[1,5-a]pyrimidine-5-carbonyl)-1-methyl-1,2,3,4-tetrahydroisoquinoline]?
A: CC50 at 3 days [1]: 16.9 µM; EC50 [2]: 427 nM

Q: Which results are given for C[C@@H]1c2ccccc2CCN1C(=O)c1cc(C2CC2)n2nc(-c3ccc([C@H]4C[C@@H]4C(=O)NS(=O)(=O)C(F)(F)F)cc3F)cc2n1 [Compound 29, (1S,2S)-2-(4-{7-Cyclopropyl-5-[(1R)-1-methyl-1,2,3,4-tetrahydroisoquinoline-2-carbonyl]pyrazolo[1,5-a]pyrimidin-2-yl}-3-fluorophenyl)-N-trifluoromethane-sulfonylcyclopropane-1-carboxamide amine salt]?
A: CC50 at 3 days [1]: > 100 µM; EC50 [2]: 2360 nM

Q: Which CC50 at 3 days [1] does the source give for COC(=O)N[C@H]1C[C@@H]1c1ccc(-c2cc3nc(C(=O)N4CCc5ccccc5[C@H]4C)cc(C4CC4)n3n2)c(F)c1 [Compound 33, Methyl N-[(1S,2R)-2-(4-{7-cyclopropyl-5-[(1R)-1-methyl-1,2,3,4-tetrahydroisoquinoline-2-carbonyl]pyrazolo[1,5-a]pyrimidin-2-yl}-3-fluorophenyl)cyclopropyl]carbamate] here?
A: > 100 µM

Q: And the EC50 [2]?
A: 155 nM

Q: For C[C@@H]1c2ccccc2CCN1C(=O)c1cc(C2CC2)n2nc(-c3ccc([C@H]4C[C@@H]4NC(=O)C4CC4)cc3F)cc2n1 [Compound 35, N-[(1S,2R)-2-(4-{7-Cyclopropyl-5-[(1R)-1-methyl-1,2,3,4-tetrahydroisoquinoline-2-carbonyl]pyrazolo[1,5-a]pyrimidin-2-yl}-3-fluorophenyl)cyclopropyl]cyclopropane-carboxamide], which CC50 at 3 days [1] is on record?
A: > 100 µM

Q: And the EC50 [2]?
A: 57 nM

Q: Which CC50 at 3 days [1] does the source give for C[C@@H]1c2ccccc2CCN1C(=O)c1cc(C2CC2)n2nc(-c3ccc([C@H]4C[C@@H]4NS(C)(=O)=O)cc3F)cc2n1 [Compound 36, N-[(1S,2R)-2-(4-{7-Cyclopropyl-5-[(1R)-1-methyl-1,2,3,4-tetrahydroisoquinoline-2-carbonyl]pyrazolo[1,5-a]pyrimidin-2-yl}-3-fluorophenyl)cyclopropyl]methanesulfonamide] here?
A: > 100 µM

Q: What about the EC50 [2] of the same compound?
A: 110 nM
